Results taken from patent publication US6943183B2 (Pfizer Inc, priority 2000, dated 2005).

Target: T1, SF9 affinity purified rat FPT (Rattus norvegicus, UniProt Q02293+Q04631)
T1 construct: made in house; host or cells: Sf9 insect cells
Assay: PFT (FPT) inhibitory activity assay, radiolabeled farnesyl pyrophosphate and biotinyl peptide, streptavidin beads
Type: biochemical
Conditions: HEPES buffer pH 7.4, 30° C., 30 minutes; read-out: FTase IC50
In short: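 Rat FPT expressed in SF9 cells was incubated 30 minutes at 30° C. with compound (in 10% DMSO), radiolabeled farnesyl pyrophosphate and biotinylated peptide. Buffer: HEPES pH 7.4, ZnCl2 20 μM, MgCl2 and DTT 5 mM each, 0.1% PEG 8000, 5 mM potassium phosphate (also run without phosphate). Product captured on streptavidin beads in magnesium acetate/H3PO4 stop buffer.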

SMILES | IC50
O=C(NC1CC1)c1ccccc1S(=O)(=O)Cc1c(O[C@H](Cn2ccnc2)c2ccccc2)ccc2c1CCCC2=O [Compound 225, N-Cyclopropyl-2-{[(2-{[(1S)-2-(1H-imidazol-1-yl)-1-phenylethyl]oxy}-5-oxo-5,6,7,8-tetrahydro-1-naphthalenyl)methyl]sulfonyl}benzamide] | 0.2 nM
O=C(NC1CC1)c1ccc(SCc2c(O[C@H](Cn3ccnc3)c3ccccc3)ccc3c2CCCC3=O)cc1 [Compound 226, N-Cyclopropyl-4-{[(2-{[(1S)-2-(1H-imidazol-1-yl)-1-phenylethyl]oxy}-5-oxo-5,6,7,8-tetrahydro-1-naphthalenyl)methyl]sulfanyl}benzamide] | 0.2 nM
O=C(NC1CC1)c1cccc(SCc2c(O[C@H](Cn3ccnc3)c3ccccc3)ccc3c2CCCC3=O)c1 [Compound 227, N-Cyclopropyl-3-{[(2-{[(1S)-2-(1H-imidazol-1-yl)-1-phenylethyl]oxy}-5-oxo-5,6,7,8-tetrahydro-1-naphthalenyl)methyl]sulfanyl}benzamide] | 0.2 nM
O=C(NC1CC1)c1ccccc1SCc1c(O[C@H](Cn2ccnc2)c2ccccc2)ccc2c1CCCC2=O [Compound 228, N-Cyclopropyl-2-{[(2-{[(1S)-2-(1H-imidazol-1-yl)-1-phenylethyl]oxy}-5-oxo-5,6,7,8-tetrahydro-1-naphthalenyl)methyl]sulfanyl}benzamide] | 0.2 nM
O=C(NCc1ccco1)c1ccc(S(=O)(=O)Cc2c(O[C@H](Cn3ccnc3)c3ccccc3)ccc3c2CCCC3=O)cc1 [Compound 229, N-(2-Furylmethyl)-4-{[(2-{[(1S)-2-(1H-imidazol-1-yl)-1-phenylethyl]oxy}-5-oxo-5,6,7,8-tetrahydro-1-naphthalenyl)methyl]sulfonyl}benzamide] | 0.55 nM
O=C(NCc1ccco1)c1cccc(S(=O)(=O)Cc2c(O[C@H](Cn3ccnc3)c3ccccc3)ccc3c2CCCC3=O)c1 [Compound 230, N-(2-Furylmethyl)-3-{[(2-{[(1S)-2-(1H-imidazol-1-yl)-1-phenylethyl]oxy}-5-oxo-5,6,7,8-tetrahydro-1-naphthalenyl)methyl]sulfonyl}benzamide] | 0.2 nM
O=C(NCc1ccco1)c1ccccc1S(=O)(=O)Cc1c(O[C@H](Cn2ccnc2)c2ccccc2)ccc2c1CCCC2=O [Compound 231, N-(2-Furylmethyl)-2-{[(2-{[(1S)-2-(1H-imidazol-1-yl)-1-phenylethyl]oxy}-5-oxo-5,6,7,8-tetrahydro-1-naphthalenyl)methyl]sulfonyl}benzamide] | 0.2 nM
O=C(NC(CO)CO)c1ccccc1SCc1c(O[C@H](Cn2ccnc2)c2ccccc2)ccc2c1CCCC2=O [Compound 232, N-[2-Hydroxy-1-(hydroxymethyl)ethyl]-2-{[(2-{[(1S)-2-(1H-imidazol-1-yl)-1-phenylethyl]oxy}-5-oxo-5,6,7,8-tetrahydro-1-naphthalenyl)methyl]sulfanyl}benzamide] | 0.2 nM
O=C(NC(CO)CO)c1ccc(SCc2c(O[C@H](Cn3ccnc3)c3ccccc3)ccc3c2CCCC3=O)cc1 [Compound 233, N-[2-Hydroxy-1-(hydroxymethyl)ethyl]-4-{[(2-{[(1S)-2-(1H-imidazol-1-yl)-1-phenylethyl]oxy}-5-oxo-5,6,7,8-tetrahydro-1-naphthalenyl)methyl]sulfanyl}benzamide] | 0.45 nM
O=C(NC(CO)CO)c1cccc(SCc2c(O[C@H](Cn3ccnc3)c3ccccc3)ccc3c2CCCC3=O)c1 [Compound 234, N-[2-Hydroxy-1-(hydroxymethyl)ethyl]-3-{[(2-{[(1S)-2-(1H-imidazol-1-yl)-1-phenylethyl]oxy}-5-oxo-5,6,7,8-tetrahydro-1-naphthalenyl)methyl]sulfanyl}benzamide] | 0.25 nM
O=C(NC(CO)CO)c1ccc(S(=O)(=O)Cc2c(O[C@H](Cn3ccnc3)c3ccccc3)ccc3c2CCCC3=O)cc1 [Compound 235, N-[2-Hydroxy-1-(hydroxymethyl)ethyl]-4-{[(2-{[(1S)-2-(1H-imidazol-1-yl)-1-phenylethyl]oxy}-5-oxo-5,6,7,8-tetrahydro-1-naphthalenyl)methyl]sulfonyl}benzamide] | 15 nM
O=C(NC(CO)CO)c1cccc(S(=O)(=O)Cc2c(O[C@H](Cn3ccnc3)c3ccccc3)ccc3c2CCCC3=O)c1 [Compound 236, N-[2-Hydroxy-1-(hydroxymethyl)ethyl]-3-{[(2-{[(1S)-2-(1H-imidazol-1-yl)-1-phenylethyl]oxy}-5-oxo-5,6,7,8-tetrahydro-1-naphthalenyl)methyl]sulfonyl}benzamide] | 0.2 nM
O=C(NC(CO)CO)c1ccccc1S(=O)(=O)Cc1c(O[C@H](Cn2ccnc2)c2ccccc2)ccc2c1CCCC2=O [Compound 237, N-[2-Hydroxy-1-(hydroxymethyl)ethyl]-2-{[(2-{[(1S)-2-(1H-imidazol-1-yl)-1-phenylethyl]oxy}-5-oxo-5,6,7,8-tetrahydro-1-naphthalenyl)methyl]sulfonyl}benzamide] | 0.28 nM
O=C(NCc1ccco1)c1ccc(SCc2c(O[C@H](Cn3ccnc3)c3ccccc3)ccc3c2CCCC3=O)cc1 [Compound 238, N-(2-Furylmethyl)-4-{[(2-{[(1S)-2-(1H-imidazol-1-yl)-1-phenylethyl]oxy}-5-oxo-5,6,7,8-tetrahydro-1-naphthalenyl)methyl]sulfanyl}benzamide] | 0.2 nM
O=C(NCc1ccco1)c1cccc(SCc2c(O[C@H](Cn3ccnc3)c3ccccc3)ccc3c2CCCC3=O)c1 [Compound 239, N-(2-Furylmethyl)-3-{[(2-{[(1S)-2-(1H-imidazol-1-yl)-1-phenylethyl]oxy}-5-oxo-5,6,7,8-tetrahydro-1-naphthalenyl)methyl]sulfanyl}benzamide] | 0.3 nM
O=C(NCc1ccco1)c1ccccc1SCc1c(O[C@H](Cn2ccnc2)c2ccccc2)ccc2c1CCCC2=O [Compound 240, N-(2-Furylmethyl)-2-{[(2-{[(1S)-2-(1H-imidazol-1-yl)-1-phenylethyl]oxy}-5-oxo-5,6,7,8-tetrahydro-1-naphthalenyl)methyl]sulfanyl}benzamide] | 0.2 nM
CC[C@H](CO)NC(=O)c1ccc(S(=O)(=O)Cc2c(O[C@H](Cn3ccnc3)c3ccccc3)ccc3c2CCCC3=O)cc1 [Compound 241, N-[(1R)-1-(Hydroxymethyl)propyl]-4-{[(2-{[(1S)-2-(1H-imidazol-1-yl)-1-phenylethyl]oxy}-5-oxo-5,6,7,8-tetrahydro-1-naphthalenyl)methyl]sulfonyl}benzamide] | 0.26 nM
CC[C@H](CO)NC(=O)c1cccc(S(=O)(=O)Cc2c(O[C@H](Cn3ccnc3)c3ccccc3)ccc3c2CCCC3=O)c1 [Compound 242, N-[(1R)-1-(Hydroxymethyl)propyl]-3-{[(2-{[(1S)-2-(1H-imidazol-1-yl)-1-phenylethyl]oxy}-5-oxo-5,6,7,8-tetrahydro-1-naphthalenyl)methyl]sulfonyl}benzamide] | 0.2 nM
CC[C@H](CO)NC(=O)c1ccccc1S(=O)(=O)Cc1c(O[C@H](Cn2ccnc2)c2ccccc2)ccc2c1CCCC2=O [Compound 243, N-[(1R)-1-(Hydroxymethyl)propyl]-2-{[(2-{[(1S)-2-(1H-imidazol-1-yl)-1-phenylethyl]oxy}-5-oxo-5,6,7,8-tetrahydro-1-naphthalenyl)methyl]sulfonyl}benzamide] | 0.2 nM
CC[C@H](CO)NC(=O)c1ccccc1SCc1c(O[C@H](Cn2ccnc2)c2ccccc2)ccc2c1CCCC2=O [Compound 244, N-[(1R)-1-(Hydroxymethyl)propyl]-2-{[(2-{[(1S)-2-(1H-imidazol-1-yl)-1-phenylethyl]oxy}-5-oxo-5,6,7,8-tetrahydro-1-naphthalenyl)methyl]sulfanyl}benzamide] | 0.2 nM
CC[C@H](CO)NC(=O)c1ccc(SCc2c(O[C@H](Cn3ccnc3)c3ccccc3)ccc3c2CCCC3=O)cc1 [Compound 245, N-[(1R)-1-(Hydroxymethyl)propyl]-4-{[(2-{[(1S)-2-(1H-imidazol-1-yl)-1-phenylethyl]oxy}-5-oxo-5,6,7,8-tetrahydro-1-naphthalenyl)methyl]sulfanyl}benzamide] | 0.2 nM
CC[C@H](CO)NC(=O)c1cccc(SCc2c(O[C@H](Cn3ccnc3)c3ccccc3)ccc3c2CCCC3=O)c1 [Compound 246, N-[(1R)-1-(Hydroxymethyl)propyl]-3-{[(2-{[(1S)-2-(1H-imidazol-1-yl)-1-phenylethyl]oxy}-5-oxo-5,6,7,8-tetrahydro-1-naphthalenyl)methyl]sulfanyl}benzamide] | 0.2 nM
CC[C@H](C)CNC(=O)c1ccc(S(=O)(=O)Cc2c(O[C@H](Cn3ccnc3)c3ccccc3)ccc3c2CCCC3=O)cc1 [Compound 247, 4-{[(2-{[(1S)-2-(1H-Imidazol-1-yl)-1-phenylethyl]oxy}-5-oxo-5,6,7,8-tetrahydro-1-naphthalenyl)methyl]sulfonyl}-N-[(2S)-2-methylbutyl]benzamide] | 0.2 nM
CC[C@H](C)CNC(=O)c1cccc(S(=O)(=O)Cc2c(O[C@H](Cn3ccnc3)c3ccccc3)ccc3c2CCCC3=O)c1 [Compound 248] | 0.2 nM
CC[C@H](C)CNC(=O)c1ccccc1S(=O)(=O)Cc1c(O[C@H](Cn2ccnc2)c2ccccc2)ccc2c1CCCC2=O [Compound 249] | 0.25 nM
CC[C@H](C)CNC(=O)c1ccccc1SCc1c(O[C@H](Cn2ccnc2)c2ccccc2)ccc2c1CCCC2=O [Compound 250, 2-{[(2-{[(1S)-2-(1H-Imidazol-1-yl)-1-phenylethyl]oxy}-5-oxo-5,6,7,8-tetrahydro-1-naphthalenyl)methyl]sulfanyl}-N-[(2S)-2-1-methylbutyl]benzamide] | 0.2 nM
CC[C@H](C)CNC(=O)c1ccc(SCc2c(O[C@H](Cn3ccnc3)c3ccccc3)ccc3c2CCCC3=O)cc1 [Compound 251, 4-{[(2-{[(1S)-2-(1H-Imidazol-1-yl)-1-phenylethyl]oxy}-5-oxo-5,6,7,8-tetrahydro-1-naphthalenyl)methyl]sulfanyl}-N-[(2S)-2-methylbutyl]benzamide] | 0.2 nM
